How the values were obtained:
[1] = tested on: herpes simplex virus (HSV) and VZV; settings: disclosed in Patent References 5 to 7; cited from earlier work
HSV-1 [2] = assay: HSV-1 skin infection of hairless mice: skin lesion score and histopathology of skin, spinal cord and dorsal root ganglion; assay type: in vivo, mouse
Experimental: Using mice, examination was carried out on the tissue damage and nerve degeneration of the skin, spinal cord and spinal cord dorsal root ganglion by HSV-1 infection. Under ether anesthesia, right side of the dorsal part of a hairless mouse (HOS: HR-1, female, 7 weeks of age at the time of infection) was scratched with a needle, and 15 μl/mouse of an HSV-1 virus liquid was added dropwise to the scratched part to be infected. While, 15 μl/mouse of a solvent instead of the HSV-1 virus liquid was added dropwise in the pseudo-infection group. The compound to be tested (N-(2,6-dimethylphenyl)-N-(2-{[4-(1,2,4-oxadiazol-3-yl)phenyl]amino}-2-oxoethyl)tetrahydro-2H-thiopyran-4-carboxamide 1,1-dioxide: hereinafter, “compound A”) was used by dissolving in a 25% Cremophor (registered trademark) EL/25% polyethylene glycol 400 aqueous solution. By setting the administration liquid volume per one administration to 10 ml/kg, each initial administration was started one day after the HSV-1 infection. Thereafter, 50 mg/kg was repeatedly administered orally twice a day for 5 days.
The skin and spinal column (including spinal cord and dorsal root ganglion) were collected at 11 or 28 days after the infection and fixed with a 10% neutral buffer formalin liquid to prepare paraffin sections. Also, specimens of spinal cord and dorsal root ganglion were prepared on the transverse plane at the level of fourth thoracic vertebra (T4) and sixth thoracic vertebra (T6). Regarding the staining, immunohistological staining for PGP 9.5 as neurite-specific antigen was carried out on the skin sections, in addition to the hematoxylin-eosin staining (HE staining).
The skin lesions which bear resemblance to herpes zoster and are developed accompanied by HSV skin infection were classified based on the skin lesion critical degrees and systemic symptoms and scored as from 0 to 7, every day from 1 day to 28 days after the infection.
Score 1: erythema, blister or scab at local region
Score 2: erythema, blister or scab at small region
Score 3: erythema, blister or scab at middle region
Score 4: strap-like blister or scab
Score 5: erosion accompanied by ulcer at middle region
Score 6: strap-like ulcer
Score 7: death or paralysis

HSV-1 [3] = assay: mouse HSV infection pain model (von Frey hair pain score, histopathology); assay type: in vivo
Description: Examination was made on the effect of compound A upon the pain accompanied by viral infection. The mouse HSV infection pain model system on which onset of the pain similar to ZAP including acute phase and chronic phase pains has been reported was used in the evaluation of pain (Takasaki I, et al. Pain 2000; 86: 95-101, Takasaki I, et al. Jpn J. Pharmacol 2000; 83: 319-326, Takasaki I, et al. Anesthesiology 2002; 96: 1168-1174, Sasaki A, et al. Neuroscience 2007; 150: 459-466). Briefly, an area of 5×5 mm of epidermis of the lower part of the right hind leg knee joint of a hairless mouse (HOS: HR-1, female, 7 weeks of age at the time of infection) was scratched with a bundle of ten 27G intracutaneous injection needles, and 1.5×10^5 pfu/10 μL of an HSV-1 virus liquid was added dropwise thereto and spread thereon to be infected. Starting from one day after the infection, the compound A (50 mg/kg) or a solvent (25% Cremophor (registered trademark) EL/25% polyethylene glycol 400 aqueous solution) was orally administered twice a day for 5 days (5 animals each). The skin lesions were classified based on the skin lesion critical degrees and systemic symptoms and scored as from 0 to 7 (cf. the above-mentioned Example 1). […] The pain reaction of this case was evaluated as follows. […]
The pain score of each individual was calculated by averaging six scores. […]

[4] = tested on: patients who underwent herpes zoster; assay: clinical evaluation of zoster-associated pain / PHN incidence (Numeric pain scale); assay type: in vivo, human; settings: for PHN incidence rate: pain scale of 3 or more on 91 days after first day of administration
Description: The effect of compound A to prevent and treat zoster-associate pain in patients who underwent herpes zoster was clinically evaluated by monitoring the presence or absence of pain after administration of the compound A in the following manner. For the purpose, Numeric pain scale (11 points of from 0 (no pain) to 10 (a pain of more than this cannot be considered)) was used in the pain evaluation (Oxman M N, et al. N Engl J Med 2005; 352: 2271-2284).
Under informed consent with the persons themselves, 100 mg, 200 mg or 400 mg of the compound A was taken once a day for 7 days by each of the patients who underwent herpes zoster, and the pain was recorded by them day by day by the Numeric pain scale using a diary. From the diary record, the number of patients having pain scales of 3 or more on 91 days after the first day of drug administration were counted as the cases of PHN onset, and using the ratio based on the all persons to be rested as the PHN incidence rate, the effect of the compound A to prevent PHN was evaluated. As a result, the PHN incidence rate in the group which took 100 mg, 200 mg or 400 mg of the compound A was 2.0% (2 cases in 99 persons), 1.0% (1 case in 97 persons) or 3.2% (3 cases in 95 persons), respectively. Compound A inhibited the onset of PHN in 95% or more of the herpes zoster patients in the clinical evaluation.

VZV = settings: reported in Patent References 5 to 8; cited from earlier work

Row | Compound | in vivo activity [1] | skin lesion score (onset of herpes zoster-like skin lesions) (HSV-1 [2]; hairless mouse, HSV-1 dorsal skin infection, 50 mg/kg orally twice a day for 5 days from 1 day after infection, scored day 1-28, FIG. 1) | right dorsal root ganglion histopathology (degeneration of nerve cell, infiltration of mononuclear cell) (HSV-1 [2]; right dorsal root ganglion at 11 days after infection, HE staining, FIG. 3d) | skin histopathology, HE staining (fall off of epidermis, infiltration of mononuclear cells, regeneration of epidermis) (HSV-1 [2]; skin at 11 days after infection, 50 mg/kg orally twice a day for 5 days, FIG. 2b) | PGP 9.5 immunostaining of the skin (nerve ending in epidermis) (HSV-1 [2]; skin at 28 days after infection, versus solvent control group, FIG. 2d) | spinal cord histopathology (nerve fiber vacuolization) (HSV-1 [2]; spinal cord at 11 days after infection, HE staining, FIG. 3b) | nerve cell degeneration in right dorsal root ganglion, spinal cord right dorsal horn and right hind leg sciatic nerve bundle (HSV-1 [3]; 28 days after infection, HE staining, FIG. 5) | pain score (von Frey hair 0.4 g, infected hind leg) (HSV-1 [3]; hairless mouse, HSV-1 hind leg infection, 50 mg/kg orally twice a day for 5 days from 1 day after infection, early stage of onset and complete recovery stage of the lesion, FIG. 4B) | PHN incidence rate ([4]; 100 mg once a day for 7 days, 99 persons) | PHN incidence rate ([4]; 200 mg once a day for 7 days, 97 persons) | PHN incidence rate ([4]; 400 mg once a day for 7 days, 95 persons) | herpes zoster patients in whom onset of PHN was inhibited ([4]; 100, 200 or 400 mg once a day for 7 days, all dose groups) | anti-viral activity on VZV (VZV)
1 | Cc1ccc(N(CC(=O)Nc2ccc(-c3cocn3)cc2)C(=O)C2CCS(=O)(=O)CC2)cc1 [N-(4-methylphenyl)-N-(2-{[4-(1,3-oxazol-4-yl)phenyl]amino}-2-oxoethyl)tetrahydro-2H-thiopyran-4-carboxamide 1,1-dioxide] | good in vivo activity | – | – | – | – | – | – | – | – | – | – | – | –
2 | Cc1cccc(C)c1N(CC(=O)Nc1ccc(-c2ncon2)cc1)C(=O)C1CCS(=O)(=O)CC1 [compound A, N-(2,6-dimethylphenyl)-N-(2-{[4-(1,2,4-oxadiazol-3-yl)phenyl]amino}-2-oxoethyl)tetrahydro-2H-thiopyran-4-carboxamide 1,1-dioxide] | good in vivo activity | inhibited the onset of skin lesions | inhibited degeneration of nerve cell and infiltration of mononuclear cell | inhibited fall off of epidermis and infiltration of mononuclear cell and accelerated regeneration of epidermis | inhibition of the reduction of nerve ending | protected nerve fiber in the spinal cord | nerve cell degeneration was inhibited | increase of pain score was considerably inhibited | 2.0% | 1.0% | 3.2% | ≥ 95% | has the anti-viral activity on VZV

— patent US20110201659A1, “AGENT FOR PREVENTING OR TREATING ZOSTER-ASSOCIATED PAIN” (ASTELLAS PHARMA INC., priority 2008, published 2011)
